Test results from US7888341B2, “Combination of glivec (STI571) with a cyclin-dependent kinase inhibitor, especially flavopiridol, in the treatment of cancer” (The United States of America as represented by the …, priority 2002, dated 2011).
Counter-ions that a name gives are not always drawn.

Tests used:
[1] = test system: K562 human leukemia cells; assay: Apoptosis in K562 cells, morphologic assessment of Wright-Giemsa-stained slides; assay type: cell-based
Description: (§1) They are cultured in drug-free medium prior to all experimental procedures.
Assessment of apoptosis: Following drug exposures, cytocentrifuge preparations are stained with Wright-Giemsa and viewed by light microscopy to evaluate the extent of apoptosis as described in Wang Z. et al., 1999 Cancer Res. 59, 1259-67.
Values represent the means for three separate experiments performed in triplicate±SD (standard deviation).
Values represent the means for three separate experiments performed in triplicate±S.D (standard deviation).
The Combination Index (CI) is determined in relation to the fraction of cells affected using Median Dose Effect analysis. Results are representative of three separate experiments.

[2] = test system: K562R cells (drug-resistant K562, high Bcr/Abl protein); assay: Apoptosis in drug-resistant K562R cells, morphologic assessment; assay type: cell-based, human
Description: as §1
Values represent the means for three separate experiments performed in triplicate±S.D.

In the case of Cc1ccc(NC(=O)c2ccc(CN3CCN(C)CC3)cc2)cc1Nc1nccc(-c2cccnc2)n1 [SALT I, 4-[(4-methyl-1-piperazin-1-ylmethyl)-N-[4-methyl-3-[[4-(3-pyridinyl)-2-pyrimidinyl]amino]phenyl]benzamide methanesulfonate], the “percentage of apoptotic cells, mean” value ([1]; K562, 24 h, SALT I 200 nM (time course)) is reported as 2.57%, the “percentage of apoptotic cells, mean” value ([1]; K562, 48 h, FP 0 nM + SALT I 200 nM (SALT I alone)) is reported as 5.7% and the “percentage of apoptotic cells, mean” value ([1]; K562, 48 h, SALT I 50 nM without FP) is reported as 1.9%. For the same molecule, the “percentage of apoptotic cells, mean” value ([1]; K562, 48 h, SALT I 100 nM without FP) was 1.8%, the “percentage of apoptotic cells, mean” value ([1]; K562, 48 h, SALT I 150 nM without FP) was 3.0% and the “percentage of apoptotic cells, mean” value ([1]; K562, 48 h, SALT I 200 nM (time course)) was 5.97%. For the same molecule, the “percentage of apoptotic cells, mean” value ([1]; K562, 48 h, SALT I 200 nM without FP) was 4.6%, the “percentage of apoptotic cells, mean” value ([1]; K562, 48 h, SALT I 250 nM without FP) was 8.9% and the “percentage of apoptotic cells, mean” value ([1]; K562, 48 h, SALT I 300 nM without FP) was 20.3%. The “percentage of apoptotic cells, mean” value ([1]; K562, 48 h, SALT I 400 nM without FP) was 30.8%, the “percentage of apoptotic cells, mean” value ([1]; K562, 48 h, SALT I 500 nM without FP) was 53.8% and the “induction of apoptosis” value ([1]; K562, 48 hr, SALT I concentrations <300 nM) was “weakly induces apoptosis”. For the same molecule, the apoptosis ([1]; parental K562S cells, 1.5 μM SALT I, 48 hr) was > 95%.
CN1CC[C@H](c2c(O)cc(O)c3c(=O)cc(-c4ccccc4Cl)oc23)[C@H](O)C1 [FP, 4H-1-benzopyran-4-one,2-(2-chlorophenyl)-5,7-dihydroxy-8-(3-hydroxy-1-methyl-4-piperidinyl)-,hydrochloride, (−)-cis-] was tested, and the cell death ([1]; K562, 150 nM FP by itself) was < 5%, the “percentage of apoptotic cells, mean” value ([1]; K562, 24 h, FP 150 nM (time course)) was 1.40% and the “percentage of apoptotic cells, mean” value ([1]; K562, 48 h, FP 50 nM without SALT I) was 1.9%. The “percentage of apoptotic cells, mean” value ([1]; K562, 48 h, FP 100 nM without SALT I) was 2.4%, the “percentage of apoptotic cells, mean” value ([1]; K562, 48 h, FP 150 nM (time course)) was 3.33% and the “percentage of apoptotic cells, mean” value ([1]; K562, 48 h, FP 150 nM without SALT I) was 3.2%. The “percentage of apoptotic cells, mean” value ([1]; K562, 48 h, FP 200 nM without SALT I) was 6.1%, the “percentage of apoptotic cells, mean” value ([1]; K562, 48 h, FP 300 nM without SALT I) was 18.5% and the “percentage of apoptotic cells, mean” value ([1]; K562, 48 h, SALT I 0 nM + FP 150 nM (FP alone)) was 0.9%. The “toxicity” value ([2]; 48-hr exposure, 150 nM FP) was “non-toxic” and the “percentage of apoptotic cells, mean” value ([2]; 48 h, FP 200 nM) was 1.77%.
